The values that follow come from patent US20250129080A1, “COMPOSITIONS AND METHODS OF USING THE SAME FOR TREATMENT OF NEURODEGENERATIVE AND MITOCHONDRIAL DISEASE” (Mitokinin, Inc., priority 2021, published 2025).

pEC50: −log10 of the molar value.

The subject of series [1] is HeLa cells expressing mt-Keima and YFP-Parkin (HeLa MKYP). Kind of series: Human mt-Keima mitophagy assay. The following applies: Homo sapiens, HeLa, 16 hrs with compound, then FCCP/oligomycin for 6 hours, FACS. The class given is cell-based. The protocol: Briefly, HeLa cells expressing mt-Keima and YFP-Parkin (HeLa MKYP) were plated at 10,000 cells/well in 96 well plates along with compounds at various concentrations. Following 16 hrs of incubation, cells were treated with […] FCCP/oligomycin for 6 hours, then analyzed via FACS for the presence of mitochondria in lysosomes (as determined by an emissions spectrum shift from the pH-sensitive mt-Keima tag).

The subject of another series is SKOV3 cells. Put plainly: In vitro mitosafety (glucose/galactose) assay. Type of series: cell-based. The following applies: highest mito-safe dose (gal/glc >0.80, IC20, SKOV3 cells, 20 hours) divided by mt-Keima EC50.

Method for SKOV3 cells: Briefly, SKOV3 cells (ATCC HTB-77) were plated in DMEM (Corning 10-013-CV) medium containing 25 mM glucose or DMEM with no glucose (Gibco 11966-025) supplemented with 10 mMV galactose at 9,000 cells/well in 96 well plates (Corning costar 3610). 24 hrs later, compounds, in DMSO, were added at various concentrations to a final 0.1% DMSO for all wells. […] After a 15 minute incubation cellular ATP levels were read out using a Promega GloMax® DiscoverMicroplate Reader.
The ratio of relative CellTiter-Glo values from cells grown in galactose to cells grown in glucose was determined (gal/glc ratio). The gal/glc ratio vs concentration is then graphed, and non-linear regression is used to find the highest concentration of MTK compound at which gal/glc >0.80 (the “highest mito-safe dose”, or IC20).

As usually defined, the pEC50 is −log10 of the EC50, conventionally taken in molar units. On to `COC1CN([C@H]2COc3ccccc3[C@@H]2Nc2nccc3[nH]c(C(F)(F)F)cc23)C1` [EP-0043896, N-((3R,4S)-3-(3-methoxyazetidin-1-yl)chroman-4-yl)-2-(trifluoromethyl)-1H-pyrrolo[3,2-c]pyridin-4-amine], for which the negative logarithm of the EC50 (pEC50) in series [1] is 6.82. In addition, in the series with SKOV3 cells, the “Mito-Safety Index (highest safe dose/EC50)” value (“Mito-Safety Index” below) was found to be 126.7.

Take `FC1CN([C@H]2COc3ccccc3[C@@H]2Nc2nccc3[nH]c(C(F)(F)F)cc23)C1` [EP-0043908, N-((3R,4S)-3-(3-fluoroazetidin-1-yl)chroman-4-yl)-2-(trifluoromethyl)-1H-pyrrolo[3,2-c]pyridin-4-amine]: in series [1], the negative logarithm of the EC50 (pEC50) is 6.70. Further, in the series on SKOV3 cells, the “Mito-Safety Index” value is given as 125.0.

For `Fc1ccc2c(c1)OC[C@H](N1CCC3(CC3)C1)[C@H]2Nc1ncnc2[nH]c(C(F)(F)F)cc12` [EP-0043913, N-((3R,4S)-7-fluoro-3-(5-azaspiro[2.4]heptan-5-yl)chroman-4-yl)-6-(trifluoromethyl)-7H-pyrrolo[2,3-d]pyrimidin-4-amine], the negative logarithm of the EC50 (pEC50) in series [1] was 6.43. In addition, the “Mito-Safety Index” value in the series on SKOV3 cells was determined as 67.6.

Take `C[C@@H]1CN([C@H]2COc3cc(F)ccc3[C@@H]2Nc2ncnc3[nH]c(C4CCC4)cc23)CCO1` [EP-0044008, 6-cyclobutyl-N-((3R,4S)-7-fluoro-3-((R)-2-methylmorpholino)chroman-4-yl)-7H-pyrrolo[2,3-d]pyrimidin-4-amine]: in series [1], the negative-log EC50 (pEC50) was 8.00. Further, the “Mito-Safety Index” value in the series on SKOV3 cells amounted to 2500.0.
